# Experiments:
# cancer = assay: Phase I trial combining PLD and trabectedin: best overall response; format: in vivo, human; conditions: for Best Overall Response: SD (patients, tumour type): stable disease > 3 months
# Method: (§1) A phase I trial combining PLD and trabectedin was performed. The objective of this study was to determine the maximum tolerated dose (MTD) of trabectidin in combination with PLD 30 mg/m^2 administered every 21 clays. Additional objectives were to evaluate the safety profile of this combination of drugs and to evaluate the pharmacokinetics of trabectidin and PDL when given in combination. The maximum tolerated dose (MTD) relates to the highest dose at which less than one third of the subjects in a dose-level cohort experienced dose-limiting toxicity (DLT).
# (§2) We designed a dose finding trial with a fixed PLD dose of 30 mg/m^2 administered intravenously over one hour, followed immediately by one of six trabectedin doses (0.4, 0.6, 0.75, 0.9, 1.1, and 1.3 mg/m^2) administered intravenously over 3 hours. This treatment was repeated every 21 days.
# Thirty patients, 14 with sarcomas, 2 with ovarian cancer, 2 with pancreatic cancer, 2 with head and neck carcinoma, 1 with bladder cancer, 1 with breast cancer, 1 with gastric cancer, 1 with NSCLC, 1 with SCLC and 5 more with other types of cancers have been treated (Table 1).
# Fourteen (14) additional patients (five with sarcoma, and one each carcinoid tumor, pancreatic, bladder, head and neck, thyroid, breast, gastric, SCLC and ovarian cancer) have had stable disease for > 3 months (Table 8a and 8b).
# [1] = Phase I trial combining PLD and trabectedin: pharmacokinetics of trabectedin; format: in vivo, human; conditions: for AUC∞ / Cl / Cmax / T1/2: mean; for Impact of concomitant PLD on the pharmacokinetics of trabectedin: preliminary analysis, versus historical control data of trabectedin alone
# Method: as §1, §2
# Based on preliminary pharmacokinetic analysis, the values of trabectedin CL (systematic clearance after i.v. dose), t½ (half life) and Vss (apparent volume of distribution at steady state) are within the range observed when trabectedin is given alone (historical control data) (FIG. 1, Table 9),
# [2] = Phase I dose escalation study of Doxorubicin (60 mg/m^2) in combination with ET-743; format: in vivo, human; conditions: in combination with Doxorubicin 60 mg/m^2, ET-743 over 3 hours
# Method: The following figures indicate that the use of PLD in combination with ET-743, allows an escalated dose of ET-743 to be tolerated, in comparison to when Doxorubicin is used. A phase I dose escalation study of Doxorubicin (60 mg/m^2) in combination with ET-743, administered over 3 hours, could only support a ET-743 dose of 0.7 mg/m^2. In a Phase I dose escalation study of 30 mg/m^2 PLD in combination with ET-743 administered over 3 hours, ET-743 could be escalated to 1.1 mg/m^2.
# human tumour xenografts = conditions: xenografts including melanoma and ovarian and breast carcinoma; cited from earlier work
# [3] = tested on: sarcoma and breast and ovarian carcinoma; conditions: phase I, ET-743 alone; cited from earlier work
# [4] = patients, infusion over 24-72 hr; cited from earlier work
# [5] = increase in plasma liver enzymes, cholangitis; cited from earlier work
# [6] = ET743 0.4 mg/m^2 + PLD 30 mg/m^2, N = 3
# [7] = ET743 0.6 mg/m^2 + PLD 30 mg/m^2, N = 3
# [8] = ET743 0.75 mg/m^2 + PLD 30 mg/m^2, N = 3
# [9] = ET743 0.9 mg/m^2 + PLD 30 mg/m^2, N = 3
# [10] = ET743 1.1 mg/m^2 + PLD 30 mg/m^2, N = 12
# [11] = ET-743 0.9 mg/m^2 3 hours infusion after PLD 30 mg/m^2 1 hour infusion, N 3
# [12] = ET-743 1.1 mg/m^2 3 hours infusion after PLD 30 mg/m^2 1 hour infusion, N 3
# [13] = ET-743 1.3 mg/m^2 3 hours infusion after PLD 30 mg/m^2 1 hour infusion, N 2
smiles,measurement,setting,value
"COc1cc2c(cc1O)CCN[C@]21CS[C@@H]2c3c(OC(C)=O)c(C)c4c(c3[C@H](COC1=O)N1[C@@H]2[C@H]2c3c(cc(C)c(OC)c3O)C[C@@H]([C@@H]1O)N2C)OCO4 [ET743, Ecteinascidin 743]","Best Overall Response: PR (patients, tumour type)",cancer; [6],1 Sarcoma
same,"Treatment termination, subjects: Disease Progression",cancer; [6],2
same,"Best Overall Response: PR (patients, tumour type)",cancer; [7],0
same,"Treatment termination, subjects: Disease Progression",cancer; [7],1
same,"Best Overall Response: PR (patients, tumour type)",cancer; [8],0
same,"Treatment termination, subjects: Disease Progression",cancer; [8],2
same,"Best Overall Response: SD (patients, tumour type)",cancer; [8],1 Thyroid
same,"Best Overall Response: PR (patients, tumour type)",cancer; [9],0
same,"Treatment termination, subjects: Disease Progression",cancer; [9],3
same,"Best Overall Response: SD (patients, tumour type)",cancer; [9],0
same,"Best Overall Response: PR (patients, tumour type)",cancer; [10],1 Sarcoma
same,"Treatment termination, subjects: Disease Progression",cancer; [10],5
same,"Treatment termination, subjects: Disease Progression","cancer; ET743 1.3 mg/m^2 + PLD 30 mg/m^2, N = 6",2
same,Clinical benefit (measurable responses),"cancer; ET-743 together with PLD, soft tissue sarcoma, ovarian and head and neck cancer",measurable responses demonstrated evidence of clinical benefit
same,"Treatment termination, subjects: Disease Progression","cancer; Total, all ET743 dose levels + PLD 30 mg/m^2, N = 30",15
same,AUC∞,[1]; [11],39 ng·h/mL
same,Cl,[1]; [11],23 l/h/m2
same,Cmax,[1]; [11],6 ng/mL
same,T1/2,[1]; [11],93 h
same,AUC∞,[1]; [12],42 ng·h/mL
same,Cl,[1]; [12],26 l/h/m2
same,Cmax,[1]; [12],6 ng/mL
same,T1/2,[1]; [12],65 h
same,AUC∞,[1]; [13],31 ng·h/mL
same,Cl,[1]; [13],44 l/h/m2
same,Cmax,[1]; [13],7 ng/mL
same,T1/2,[1]; [13],47 h
same,Impact of concomitant PLD on the pharmacokinetics of trabectedin,[1],does not have an impact
same,Impact of concomitant PLD on the pharmacokinetics of trabectedin,[1]; listed as trabectidin,overtly not impacted
same,ET-743 dose that could be supported in dose escalation,[2],0.7 mg/m^2
same,antineoplastic activity,human tumour xenografts,potent antineoplastic activity
same,clinical responses,[3],promising responses were observed
same,side effects,[4],myelotoxic and hepatotoxic side effects
same,acute toxicity finding,[5],liver toxicity as an important side effect

# From patent publication US20090117176A1, “Anticancer Treatments” (Pharma Mar, S.A. Sociedad Unipersonal, priority 2004, published 2009)
